# Measured values: patent US6845328B2, “Screening methods using the crystal structure of ribosomal protein L11/GTPase activating region rRNA complex” (University of Utah Research Foundation, priority 1999, dated 2005)
# Entries after “also recorded” stand apart in the source; their conditions may differ.
# How the values were obtained:
# [1] = tested on: E. coli S30 lysate and luciferase mRNA; settings: bioluminescence; cited from earlier work
# [2] = target: 70S ribosomes / EF-G (Escherichia coli, UniProt P0A7J7); settings: cited from earlier work
# Chain of 70S ribosomes / EF-G (P0A7J7 2-142): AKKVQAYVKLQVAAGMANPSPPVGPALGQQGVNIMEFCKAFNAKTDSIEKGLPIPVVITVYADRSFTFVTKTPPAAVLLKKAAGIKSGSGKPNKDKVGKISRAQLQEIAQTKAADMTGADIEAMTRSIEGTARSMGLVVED
# [3] = target: T1, Thermotoga maritima ribosomes (Thermotoga maritima, UniProt P29395); settings: less than B. stearothermophilus ribosomes; cited from earlier work
# T1 sequence (P29395 2-141 limits assumed): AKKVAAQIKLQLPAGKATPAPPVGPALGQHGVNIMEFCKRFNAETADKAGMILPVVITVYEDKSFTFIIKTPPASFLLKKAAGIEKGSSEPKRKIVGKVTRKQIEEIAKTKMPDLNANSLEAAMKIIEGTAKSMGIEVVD
# [4] = target: GTPase centre-59 mer; experiment: Filter binding assay of thiostrepton to GTPase centre RNA (96-well, displacement format); settings: read-out: dissociation constant for the thiostrepton/GTPase centre-59 mer complex
# Description: Thiostrepton binding to GTPase centre RNA can be monitored by a filter binding assays (Uchiumi et al., 1995, Biol. Chem., 270(50):29889-93; Draper et al., 1988, Methods Enzymol., 164:203-20). The filter binding assay can be transformed to a 96-well format using Millipore MHAB (mixed cellulose ester) 96-well plates. The dissociation constant for the thiostrepton/GTPase centre-59 mer complex of 1 uM is in good accordance with the literature. Additionally, filter binding can show the cooperativity in binding of thiostrepton and L11. Thermotoga maritima ribosomes are known to be sensitive to thiostrepton (Londei et al., 1988, J. Bacteriol., 170(9):4353-60), although 100-fold less than B. stearothermophilus ribosomes. The affinity of thiostrepton for Thermotoga GTPase center RNA in vitro has not yet been determined.
# ^35S- or ^32P-labelled RNA is prepared by transcription in the presence of radiolabelled nucleotides. The labelled RNAs are purified by gel electrophoresis or chromatography by reverse-phase. […] Association constants between RNA and thiostrepton in the presence or absence of inhbitor are determined in 100 ul reactions containing 10 mM Tris-HCl (pH 7.4), 3 mM MgCl2, 175 mM NH4Cl and 5% v/v DMSO. […]
# The relative amounts of RNA retained in the presence and absence of inhibitor can be determined by quantitation of the radioactivity on each filter. […]
# [5] = target: intact ribosomes (Escherichia coli, UniProt P0A7J7); settings: higher than for 23S RNA; cited from earlier work
# Chain of intact ribosomes (P0A7J7 2-142): as the sequence (P0A7J7 2-142) above
# [6] = target: GAR RNA; settings: RNA without L11; read-out: Kd, affinity for the RNA alone; cited from earlier work
# [7] = target: isolated L11 (Escherichia coli, UniProt P0A7J7); settings: L11 without RNA; cited from earlier work
# Chain of isolated L11 (P0A7J7 whole entry): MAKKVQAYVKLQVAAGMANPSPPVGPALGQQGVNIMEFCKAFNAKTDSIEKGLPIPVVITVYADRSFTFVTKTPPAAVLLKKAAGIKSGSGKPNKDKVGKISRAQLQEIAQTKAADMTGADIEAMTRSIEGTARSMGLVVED
# [8] = target: 23S RNA; settings: equilibrium dialysis; read-out: dissociation constant of thiostrepton/23S RNA; cited from earlier work
# [9] = target: 50S subunits (Escherichia coli, UniProt P0A7J7); settings: cited from earlier work
# Chain of 50S subunits (P0A7J7 2-142): as the sequence (P0A7J7 2-142) above
compound,measurement,setting,value
O=C(N[C@H](CO)[C@H](O)c1ccc([N+](=O)[O-])cc1)C(Cl)Cl [chloramphenicol],yield of active luciferase compared to the control,[1],decrease in yield of active luciferase
C/C=C(\NC(=O)c1csc(-c2csc(-c3ccc4c(n3)-c3csc(n3)[C@H]([C@@H](C)O)NC(=O)c3csc(n3)[C@H](C(C)C)NC(=O)c3csc(n3)/C(=C/C)NC(=O)[C@H]([C@@H](C)O)NC(=O)c3csc-4n3)n2)n1)C(=O)NC[C@@H](C)O [micrococcin],effect on hydrolysis of GTP by EF-G,[2],stimulates GTP hydrolysis by EF-G
C=C(NC(=O)C(=C)NC(=O)c1csc(C2=N[C@@H]3c4csc(n4)[C@H]4NC(=O)c5csc(n5)[C@H]([C@](C)(O)[C@@H](C)O)NC(=O)[C@H]5CSC(=N5)/C(=C/C)NC(=O)[C@H]([C@@H](C)O)NC(=O)c5csc(n5)[C@]3(CC2)NC(=O)[C@H](C)NC(=O)C(=C)NC(=O)[C@H](C)NC(=O)[C@H]([C@@H](C)CC)N[C@@H]2C=Cc3c([C@H](C)O)cc(nc3[C@H]2O)C(=O)O[C@@H]4C)n1)C(N)=O [thiostrepton],sensitivity of ribosomes to thiostrepton relative to B. stearothermophilus ribosomes,[3],100 fold
same,effect on hydrolysis of GTP by EF-G,[2],inhibits elongation factor G (EF-G)-dependent GTP hydrolysis; also recorded: inhibits hydrolysis of GTP by EF-G
same,Kd,[4],1 µM
same,affinity to intact ribosomes relative to 23S RNA,[5],100-1000 fold
same,Kd,[6],0.4 µM
same,binding to isolated L11,[7],does not bind isolated L11
same,yield of active luciferase compared to the control,[1],decrease in yield of active luciferase
same,Kd,[8],0.23 µM
same,binding to 50S subunits,[9],binds essentially irreversibly to 50S subunits
